# Data taken from paper PMC4418665, “Cyclization of the Urokinase Receptor-Derived Ser-Arg-Ser-Arg-Tyr Peptide Generates a Potent Inhibitor of Trans-Endothelial Migration of Monocytes” (PLoS ONE, 2015).
# Peptide text beside a SMILES is read from it.
# Experiments:
# [1] = system: THP-1 cells crossing HUVEC monolayer; test: Trans-endothelial migration assay, xCELLigence RTCA; format: cell-based, human; details: 10 nM peptide, 10% FBS, monitored 10 hours, Cell Index, quadruplicate
# Text: Diapedesis of leukocytes plays a key role in the pathogenesis of inflammatory diseases and migration of monocytes from the blood into the sub-endothelial space is one of the earliest events. We investigated the effects of [SRSRY] on the number and morphology of THP-1 seeded to an endothelial monolayer. […] (Fig 5A). To examine the changes in morphology in more detail and quantify monocytes interacting with endothelial monolayer, we performed a subset of experiments using GFP-tagged THP-1, labeling co-cultures for F-actin and recording images by a confocal microscope. […] To further ascertain if [SRSRY] reduces trans-endothelial migration of monocytes, the ability of THP-1 cells to cross an endothelial monolayer was analyzed using the xCELLigence RTCA technology as previously described. […] At this time, reduction of impedance values, due to invading cells that interrupt monolayers was monitored in real-time for 10 hours. […]
# Fig 5 [SRSRY] prevents trans-endothelial migration of THP-1 cells. […] Representative images of co-cultures analyzed by phase contrast microscopy at 100x with Scale bar: 50 μm (A) or stained with rhodamine- phalloidin and recorded by a confocal microscope (z-series with 0.25 μm intervals) at 630x with Scale bar: 10 μm (B). […] Fluorescent THP-1 cells which were adherent on the endothelial monolayer were counted on 10 fields/slide at 200x magnification. […]
# human primary monocytes = test: Primary monocyte migration in Boyden chambers; format: cell-based; details: 10 nM peptide, 90 minutes
structure (smiles),measurement,setting,value
"N=C(N)NCCC[C@@H]1NC(=O)[C@H](CO)NC(=O)[C@H](Cc2ccc(O)cc2)NC(=O)[C@H](CCCNC(=N)N)NC(=O)[C@H](CO)NC1=O [[SRSRY], [Ser-Arg-Ser-Arg-Tyr]] (cyclo(RSRYS))",reduction of THP-1 trans-endothelial migration,[1],35%
same,reduction of SRSRY-directed primary monocyte migration,human primary monocytes; 10 nM SRSRY,49%
same,reduction of fMLF-directed primary monocyte migration,human primary monocytes; 10 nM fMLF,50%
